Entries after “also recorded” stand apart in the source; their conditions may differ.
How the values were obtained:
[1] = test system: AML-37 human LSC engrafted in Rag2−/−γc−/− mice; assay: sAML PRIMAGRAFT model AML-37: FACS engraftment analysis and serial transplantation; format: in vivo, mouse
Description: All animal studies were performed in accordance with UCSD and NIH-equivalent ethical guidelines and were approved by the Institutional Animal Care and Use Committee (IACUC protocol # S06015). For all in vivo experiments, animals of both genders were utilized. Three AML PRIMAGRAFT™ models were established by transplanting AML LSC-enriched cell fractions (either CD34-selected or FACS-purified stem or progenitor cell fractions from primary patient samples) into immunocompromised Rag2^−/−γc^−/−[20] or NOD/SCID-IL2RG mice (Jackson Laboratory) constitutively expressing human SCF, GM-CSF and IL-3 (NSGS) (FIGS. 8A-8D). For all transplantations into Rag2^−/−γc^−/− animals, neonatal mice were transplanted with human cells intrahepatically as previously described, and for all transplantations into NSGS animals, sublethally irradiated (300 Rad) adult (6-8 weeks old) mice were transplanted intravenously with 1-2×10^5 CD34^+ human cells.
For in vivo treatments, a 10 mg/mL stock solution of 17S-FD-895 solubilized in DMSO was used. After randomization, AML-engrafted mice were dosed intravenously with 17S-FD-895 (5-10 mg/kg) or vehicle (for AML-08, vehicle control=15% DMSO in PBS; for AML-37, vehicle control=20% DMSO in PBS) three times over a two-week period, with the first dose given on day 1, the second on day 7, and the third on day 14. For preparation of RNA from human LSC-enriched populations, single cell suspensions from spleen and bone marrow were CD34 double-selected (over two LS selection columns, Miltenyi) and 1-2×10^5 cells were collected in lysis buffer or pooled according to treatment group for serial transplantation assays.
Mice transplanted with 1-2×10^5 CD34^+ AML LSC-enriched fractions or no-transplant controls were screened for human hematopoietic cell engraftment (CD45^+ cells) in peripheral blood by FACS starting at 7-10 weeks post transplant. At 7-28 weeks post-transplant (7-36 weeks old), mice were euthanized, and peripheral blood and single cell suspensions of hematopoietic organs were analyzed for human cell engraftment by FACS. Total cell suspensions from bone marrow and spleen were either transplanted immediately or CD34-selected for transplant into secondary recipient mice (1-2×10^5 cells per animal) to expand the cells in vivo. […] Secondary recipient mice were euthanized after 8-23 weeks, and cell suspensions from bone marrow and spleen were CD34-selected for transplant into tertiary recipients for 17S-FD-895 treatment.
The 17S-FD-895 dosing regimen was selected as the maximum number of doses possible for the treatment of three experimental groups with the amount of synthesized compound that was available, and is consistent with weekly IV dosing regimens used in clinical trials of spliceosome inhibitory compounds in patients with solid tumors. Animals were euthanized within two hours after delivery of the final dose of 17S-FD-895, and peripheral blood, spleens and bone marrows were collected for analysis of total human cell and stem and progenitor cell engraftment, and for RNA extraction for splice isoform-specific qRT-PCR.
Flow cytometric analysis was performed on single cell suspensions from each hematopoietic tissue essentially as for primary patient samples, and frequencies of total live human CD45^+ cells, and CD45^+CD34^+CD38^− Lin^− (stem) and CD45^+CD34^+CD38^+ Lin^− (progenitor) cells were determined in each tissue. Analysis of progenitor cell subpopulations was performed for AML-37, with GMP identified as CD123^+CD45RA^+, CMP as […] and megakaryocyte-erythroid progenitors (MEP) as […]. Inclusion/exclusion criteria were pre-established based on minimum CD45^+ cell engraftment rates of 1% in peripheral blood, as determined by previous PRIMAGRAFT™ experiments. […]

[2] = test system: human CD34+ cell fractions from spleens and bone marrow of AML-37 engrafted mice; assay: RNA-Seq of human CD34+ cells pooled from spleens and bone marrow of treated sAML-engrafted mice; format: in vivo
Description: In vivo molecular response to therapeutic splicing modulation. RNA-seq analysis was performed in human CD34+ cell fractions isolated from spleens and bone marrow of 17S-FD-895-treated sAML-engrafted mice. […] The data are set forth in Table 4 following, which formed the basis for calculation of FIG. 17G.
Xenograft sequencing data of 2×150 bp paired end reads were trimmed using cutadapt 1.8.1, aligned using STAR 2.5.0b against the GRCh37 reference FASTA sequence with the Ensembl GRCh37.75 GTF as a splice junction source. Strandedness was inferred using modulate “infer_experiment.py” from the RSeQC package (Wang et al., 2012). Then, transcripts were quantified using Cufflinks v2.2.1 (Trapnell et al., 2010) against the Ensembl GRCh37.75 GTF reference with bias correction against the GRCh37 reference FASTA. This yielded Cufflinks FPKM values. Isoforms sharing gene names were summed to yield gene FPKMs. FPKM values were transformed to generate log 2(FPKM+1) for all transcripts in the sAML isoform signature (FIGS. 11D, 11E, 12D), comparing vehicle versus 10 mg/kg treatment groups for spleen and bone marrow. Then, a heatmap was generated using all transcripts showing a L2FC>0.5 in both tissues, occurring in the opposite direction of the L2FC transcript expression values in sAML versus normal age-matched controls (i.e. L2FC>1 in sAML, L2FC<−0.5 in 10 mg/kg-treated spleen and bone marrow).
Gene expression data in FPKM was submitted to GSEA to determine significant KEGG pathways, and enrichment plots describing ranked gene expression in those pathways. Additional analyses were performed using custom gene sets including genes associated with the top differentially expressed transcript signatures in aged (“aged up”) versus young (“young up”) HPC and sAML (“sAML up”) versus aged (“aged up”) HPC (FIGS. 11D, 11E, 12D). We acknowledge our use of the gene set enrichment analysis, GSEA software, and Molecular Signature Database (see website: broad.mit.edu). […]

## CC[C@H](OC)[C@@H](C)[C@H]1O[C@@H]1[C@@H](O)[C@H](C)/C=C/C=C(\C)[C@H]1OC(=O)C[C@H](O)CC[C@@](C)(O)[C@@H](OC(C)=O)/C=C/[C@@H]1C (stereo in doubt) [Formula 17S-FD-895, 17S-FD-895]
[1]; AML-37, 5 or 10 mg/kg
  common myeloid progenitor (CMP) frequency: slight increase
[1]; AML-37, 5 or 10 mg/kg, hematopoietic tissues
  GMP frequency: reduced GMP frequency; also recorded: significantly reduced
[1]; recipients of CD34+ cells from 10 mg/kg group versus vehicle controls
  human leukemic burden in serial transplant recipients: marked reduction; also recorded: marked decrease
[1]; spleens, 10 mg/kg group versus vehicle controls, p<0.05
  reduction of human stem cells (CD45+CD34+CD38− Lin−): 68%
[1]; spleens, 10 mg/kg group versus vehicle controls, p=0.08
  reduction of human progenitor cells (CD45+CD34+CD38+ Lin−): 80%
[1]; spleens, 10 mg/kg versus vehicle
  human HSPC frequency: decrease in human HSPC frequency
[2]; 10 mg/kg treated mice versus vehicle
  GSEA of the “aged up” signature: enriched
[2]; higher treatment doses, bone marrow and spleen
  expression of sAML-specific transcripts STAT6-016 and ITGB2-201: reverted to a normal expression pattern
[2]; spleen and bone marrow, after treatment
  PTK2B transcripts: decreased

From US10675267B2, “Methods for detection and eradication of myeloid leukemia stem cells” (priority 2015, dated 2020)
